Entries after “also recorded” stand apart in the source; their conditions may differ. Counter-ions that a name gives are not always drawn.
What was measured:
human AT1 receptor = molecular target: T1, human AT1 receptor (Homo sapiens, UniProt P30556); assay: AT1 radioligand binding assay ([Eu]AngII displacement); conditions: [Eu]AngII at 2 nM, membranes of CHO-K1 cells expressing human AT1; read-out: pKi at the AT1 receptor (converted)
T1 construct: expressed in transfected cells; membrane preparation
T1 sequence (P30556 1-359): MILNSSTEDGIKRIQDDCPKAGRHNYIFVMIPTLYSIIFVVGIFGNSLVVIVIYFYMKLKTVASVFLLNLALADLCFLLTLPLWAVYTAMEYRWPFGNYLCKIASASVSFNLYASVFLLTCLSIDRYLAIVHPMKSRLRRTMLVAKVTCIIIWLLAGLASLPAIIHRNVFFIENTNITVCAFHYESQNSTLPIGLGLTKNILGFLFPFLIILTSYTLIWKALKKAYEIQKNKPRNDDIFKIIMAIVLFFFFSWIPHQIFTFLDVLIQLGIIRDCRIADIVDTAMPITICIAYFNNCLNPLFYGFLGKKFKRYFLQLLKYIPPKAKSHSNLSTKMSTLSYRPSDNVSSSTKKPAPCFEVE
Procedure: These in vitro assays were used to assess the ability of test compounds to bind to the AT1 and the AT2 receptors.
Membrane Preparation From Cells Expressing Human AT1 or AT2 Receptors
Chinese hamster ovary (CHO-K1) derived cell lines stably expressing the cloned human AT1 or AT2 receptors, respectively, were grown in HAM's-F12 medium supplemented with 10% fetal bovine serum, 10 μg/ml penicillin/streptomycin, and 500 μg/ml geneticin in a 5% CO2 humidified incubator at 37° C. AT2 receptor expressing cells were grown in the additional presence of 100 nM PD123,319 (AT2 antagonist). When cultures reached 80-95% confluence, the cells were washed thoroughly in PBS and lifted with 5 mM EDTA. Cells were pelleted by centrifugation and snap frozen in MeOH-dry ice and stored at −80° C. until further use.
For membrane preparation, cell pellets were resuspended in lysis buffer (25 mM Tris/HCl pH 7.5 at 4° C., 1 mM EDTA, and one tablet of Complete Protease Inhibitor Cocktail Tablets with 2 mM EDTA per 50 mL buffer (Roche cat.#1697498, Roche Molecular Biochemicals, Indianapolis, Ind.)) and homogenized using a tight-fitting Dounce glass homogenizer (10 strokes) on ice. The homogenate was centrifuged at 1000×g, the supernatant was collected and centrifuged at 20,000×g. […] Protein concentration of the membrane suspension was determined by the method described in Bradford (1976) Anal Biochem. 72:248-54. […]

[1] = Thermal stability (heating at 60° C.); type: physicochemical
Procedure: A sample of the crystalline form prepared as in Example 6 was heated at 60° C. for 5 days. The sample lost only 2% of its purity, thus the crystalline compound of the invention has excellent thermal stability.

[2] = Solid state stability assessment (storage, HPLC purity); type: physicochemical; conditions: for change in chemical purity after 28 days of storage at 40° C.: HPLC
Procedure: Samples of the crystalline freebase prepared as in Example 7, about 100 mg each, were stored in multiple vials at 5° C. (closed container), 25° C. (closed container), and at 40° C. (closed container). At specific intervals, the entire contents of a representative vial was analyzed by the following HPLC method:
Column: Agilent Zorbox SB-C18, 4.6×250 mm, 5 μm (Part No. 880975-902). Mobile Phase A: 80% H2O, 20% MeCN, 0.01% TFA. Mobile Phase B: 80% MeCN, 20% H2O, 0.01% TFA. Flow rate: 1 mL/min. Injection Volume: 20 μL. Detector: 250 nm.
The purity of the samples was determined by HPLC area percentage (% AUC).

[3] = as above; type: physicochemical; conditions: for purity at time 0: HPLC area percentage
[4] = Dynamic moisture sorption (DMS) assessment; type: physicochemical
Procedure: A dynamic moisture sorption (DMS) assessment (also known as a moisture sorption-desorption profile) was performed for a sample of the crystalline form of Example 2 using a VTI atmospheric microbalance, SGA-100 system (VTI Corp., Hialeah, Fla. 33016). A sample size of approximately 4.27 mg was used and the humidity was set at the ambient value at the start of the analysis. The DMS analysis consisted of a scan rate of 5% RH/step over the full humidity range of 2% relative humidity (RH) to 90% RH. The DMS run was performed isothermally at 25° C.

[5] = Micronization with a jet mill, particle size distribution; type: physicochemical
From the text: A sample of the crystalline freebase prepared as in Example 7 was micronized with a jet mill to give a free-flowing white powder. No issues were encountered during the micronization process.

[6] = Differential scanning calorimetry (thermal stability); type: physicochemical; conditions: 10° C./min from 22° C. to 250° C.; listed as crystalline compound of the invention
Procedure: Differential scanning calorimetry (DSC) was performed using a TA Instruments Model Q-100 module with a Thermal Analyst controller. Data were collected and analyzed using TA Instruments Thermal Solutions software. A 1.64 mg sample of the crystalline form of Example 2 was accurately weighed into a covered aluminum pan. After a 5 minute isothermal equilibration period at 22° C., the sample was heated using a linear heating ramp of 10° C./min from 22° C. to 250° C.

[7] = closed container, listed as amorphous freebase
[8] = closed container, listed as crystalline freebase
[9] = all conditions: 5° C., 25° C. and 40° C., closed container

CCOc1nc(CC)c(CNC(=O)[C@@H](S)CC(C)C)n1Cc1ccc(-c2ccccc2C(=O)O)cc1F [Example 1, 4′-{2-Ethoxy-4-ethyl-5-[((S)-2-mercapto-4-methylpentanoylamino)methyl]imidazol-1-ylmethyl}-3′-fluorobiphenyl-2-carboxylic Acid]
Ki (human AT1 receptor): < 100 nM | loss of purity ([1]; heated at 60° C. for 1 day): about 50% | purity after 14 days at 40° C. [2, 7]: 82.4 % AUC | change in chemical purity after 28 days of storage at 40° C. ([2]; 28 days at 40° C., listed as amorphous freebase): decline in purity | purity after 7 days at 40° C. [3, 7]: 86.8 % AUC | purity at time 0 ([3]; listed as amorphous freebase): 97.5 % AUC

CCOc1nc(CC)c(CNC(=O)[C@@H](S)CC(C)C)n1Cc1ccc(-c2ccccc2C(=O)O)cc1F [Example 6, 4′-{2-Ethoxy-4-ethyl-5-[((S)-2-mercapto-4-methylpentanoylamino)methyl]imidazol-1-ylmethyl}-3′-fluorobiphenyl-2-carboxylic Acid]
loss of purity ([1]; heated at 60° C. for 5 days): 2%

CCOc1nc(CC)c(CNC(=O)[C@@H](S)CC(C)C)n1Cc1ccc(-c2ccccc2C(=O)O)cc1F [amorphous TFA salt, 4′-{2-ethoxy-4-ethyl-5-[((S)-2-mercapto-4-methylpentanoyl-amino)methyl]imidazol-1-ylmethyl}-3′-fluorobiphenyl-2-carboxylic acid]
purity after 14 days at 40° C. ([2]; closed container): 62.2 % AUC | change in chemical purity after 28 days of storage at 40° C. ([2]; 28 days at 40° C.): decline in purity | purity after 28 days at 40° C. ([2]; 28 days at 40° C., closed container): 47.1 % AUC | purity at time 0 ([2]; HPLC area percentage, time 0): 97.7 % AUC | purity after 7 days at 40° C. ([3]; closed container): 73.5 % AUC

CCOc1nc(CC)c(CNC(=O)[C@@H](S)CC(C)C)n1Cc1ccc(-c2ccccc2C(=O)O)cc1F [Example 7, 4′-{2-Ethoxy-4-ethyl-5-[((S)-2-mercapto-4-methylpentanoylamino)methyl]imidazol-1-ylmethyl}-3′-fluorobiphenyl-2-carboxylic Acid]
weight gain in the humidity range of 40-75% RH ([4]; micronized material): 0.7% | purity after 14 days at 40° C. [2, 8]: 98.3 % AUC | change in chemical purity after 28 days of storage at 40° C. ([2]; 28 days at 40° C., listed as crystalline freebase): no detectable change in chemical purity; also recorded: minimal chemical degradation | change in chemical purity after 28 days of storage [2, 9]: no detectable change in chemical purity | particle size D (v, 0.1) ([5]; Post-Micronization): 0.79 μm | particle size D (v, 0.5) ([5]; Post-Micronization): 2.59 μm | particle size D (v, 0.9) ([5]; Post-Micronization): 7.07 μm | particle size D (v, 0.1) ([5]; Pre-Micronization): 1.73 μm | particle size D (v, 0.5) ([5]; Pre-Micronization): 11.32 μm | particle size D (v, 0.9) ([5]; Pre-Micronization): 50.73 μm | purity after 7 days at 40° C. [3, 8]: 98.4 % AUC | purity after 28 days at 40° C. ([3]; 28 days at 40° C., closed container, listed as crystalline freebase): 98.4 % AUC | purity at time 0 ([3]; listed as crystalline freebase): 98.5 % AUC | change in the appearance of the material after 28 days of storage [3, 9]: no observable change in the appearance

CCOc1nc(CC)c(CNC(=O)[C@@H](S)CC(C)C)n1Cc1ccc(-c2ccccc2C(=O)O)cc1F [Example 2, 4′-{2-Ethoxy-4-ethyl-5-[((S)-2-mercapto-4-methylpentanoylamino)methyl]imidazol-1-ylmethyl}-3′-fluorobiphenyl-2-carboxylic Acid]
weight gain in the humidity range of 40-75% RH ([4]; unmicronized): less than 1% | weight gain when exposed to up to 75% relative humidity ([4]; up to 75% RH, 25° C.): less than 1% | thermal decomposition (DSC thermograph) [6]: no significant thermal decomposition below about 150 °C

Source: patent US8455530B2, “Crystalline form of an alkoxyimidazol-1-ylmethyl biphenyl carboxylic acid” (Theravance, Inc., priority 2008, dated 2013)
